# Experimental data reported in patent US20220322671A1, “METHODS TO REDUCE CONTAMINATION, BIOFILM AND FOULING FROM WATER SYSTEMS, SURFACES, AND PRODUCTS” (Aequor, Inc., priority 2019, published 2022).
# “And” between values parts separate entries of the source, which are not always exact repeats. Identical values can stand only once. Like-named read-outs stand apart in the source and are kept apart here.
# Columns and labels:
# E. coli ATCC 11775 = assay: MIC broth microdilution, E. coli; assay type: cell-based
# P. aeruginosa NR-31041 = assay: MIC broth microdilution, P. aeruginosa; assay type: cell-based, Pseudomonas aeruginosa
# S. aureus ATCC 12600 = assay: MIC broth microdilution, S. aureus; assay type: cell-based
# MRSA ATCC 33591 = assay: MIC broth microdilution, MRSA; assay type: cell-based, S. aureus Methicillin-Resistant
# A. niger ATCC 16888 = assay: MIC broth microdilution, A. niger; assay type: cell-based
# [1] = tested on: Heterochlorella luteoviridis cf. (SAG 2203); assay: Algae growth inhibition; assay type: cell-based; settings: 1% concentration, 14 days, absorbance 750 nm
# Procedure: The molecules (SDBS, SDS, SEHS, and DBSA) were added to the growth culture medium of algae Heterochlorella luteoviridis cf. (SAG 2203.) Algae was grown in 50 ml tubes at 28 °C for 14 days. Absorbance (optical density) was measured at 750 nm in a spectrophotometer and used to determine concentration to inhibit the growth of algae.
# C. marina ATCC 25374 [2] = assay: MIC broth microdilution, C. marina; assay type: cell-based
# C. marina ATCC 25374 [3] = assay: Minimum bactericidal concentration, C. marina; assay type: cell-based
# [4] = tested on: C. marina ATCC 25374 biofilm; assay: MBEC biofilm eradication assay, C. marina; assay type: cell-based
# L. fermentum (ATCC 9338) = assay: MIC broth microdilution, L. fermentum; assay type: cell-based, Lactobacillus fermentum
# [5] = 24- and 48-hour biofilm, 30 min exposure
# [6] = C. marina ATCC 25374, materials in water
structure (smiles),measurement,setting,value
"CCCCCCCCCCCCOS(=O)(=O)[O-].[Na+] [SDS, sodium dodecyl sulfate]","Minimum Inhibitory Concentration (MIC) M07-09 Method, EC",E. coli ATCC 11775,0.100 % v/v
same,"Minimum Inhibitory Concentration (MIC) M07-09 Method, PA",P. aeruginosa NR-31041,0.500 % v/v
same,"Minimum Inhibitory Concentration (MIC) M07-09 Method, SA",S. aureus ATCC 12600,0.028 % v/v
same,"Minimum Inhibitory Concentration (MIC) M07-09 Method, MRSA",MRSA ATCC 33591,0.028 % v/v
same,"Minimum Inhibitory Concentration (MIC) M07-09 Method, AN",A. niger ATCC 16888,0.030 % v/v
same,Algae growth,[1],inhibited
"CCCCC(CC)COS(=O)(=O)[O-].[Na+] (stereo not drawn) [SEHS, sodium 2-ethylhexylsulfate]","Minimum Inhibitory Concentration (MIC) M07-09 Method, PA",P. aeruginosa NR-31041,0.500 % v/v
same,"Minimum Inhibitory Concentration (MIC) M07-09 Method, SA",S. aureus ATCC 12600,0.280 % v/v
same,Growth of C. marina (in words),C. marina ATCC 25374 [2],inhibited growth
same,Minimum Inhibitory Concentration (% v/v) M07-09 Method,C. marina ATCC 25374 [2],0.0313 % v/v
same,% Reduction Compared to Control,C. marina ATCC 25374 [3],99.9999%
same,CFU/ml,C. marina ATCC 25374 [3],<1E+02^1 CFU/ml
same,Minimum Bactericidal Concentration (% v/v) CLSI M26-A Method,C. marina ATCC 25374 [3],0.0630 % v/v
same,MBEC ASTM E2799-12 Method (% v/v),[4]; [5],>0.5 % v/v
same,Algae growth,[1],inhibited
"CCCCOP(=O)(O)OCCCC [DBP, dibutyl phosphate]",Growth of C. marina (in words),C. marina ATCC 25374 [2],inhibited growth
same,Minimum Inhibitory Concentration (% v/v) M07-09 Method,C. marina ATCC 25374 [2],0.1250 % v/v
same,% Reduction Compared to Control,C. marina ATCC 25374 [3],99.9999%
same,CFU/ml,C. marina ATCC 25374 [3],<1E+02^1 CFU/ml
same,Minimum Bactericidal Concentration (% v/v) CLSI M26-A Method,C. marina ATCC 25374 [3],0.5000 % v/v
same,% Reduction Compared to Control,[4],99.9999% and 99.999%
same,Log Reduction,[4],5.5
same,MBEC ASTM E2799-12 Method (% v/v),[4],0.5 % v/v
"CCCCCCCCCCCCc1ccc(S(=O)(=O)O)cc1 [DBSA, 4-Dodecylbenzenesulfonic acid]","Minimum Inhibitory Concentration (MIC) M07-09 Method, EC",E. coli ATCC 11775; E. coli ATCC 11775,0.100 % v/v
same,"Minimum Inhibitory Concentration (MIC) M07-09 Method, PA",P. aeruginosa NR-31041; P. aeruginosa NR-31041,0.500 % v/v
same,"Minimum Inhibitory Concentration (MIC) M07-09 Method, SA",S. aureus ATCC 12600; S. aureus ATCC 12600,0.003 % v/v
same,"Minimum Inhibitory Concentration (MIC) M07-09 Method, MRSA",MRSA ATCC 33591,0.003 % v/v
same,"Minimum Inhibitory Concentration (MIC) M07-09 Method, AN",A. niger ATCC 16888; A. niger ATCC 16888,0.003 % v/v
same,Growth of C. marina (in words),C. marina ATCC 25374 [2]; C. marina,inhibited growth
same,Minimum Inhibitory Concentration (% v/v) M07-09 Method,C. marina ATCC 25374 [2]; [6],< 0.0039 % v/v
same,% Reduction Compared to Control,"C. marina ATCC 25374 [3]; C. marina ATCC 25374, killing",99.9999%
same,Minimum Bactericidal Concentration (% v/v) CLSI M26-A Method,C. marina ATCC 25374 [3]; [6],0.0078 % v/v
same,CFU/ml,"C. marina ATCC 25374 [3]; C. marina ATCC 25374, detection limit <1E+02",<1E+02^1 CFU/ml
same,MBEC ASTM E2799-12 Method (% v/v),[4]; [5],>0.5 % v/v
same,% Biofilm Removal Efficacy,"[4]; 48-hour biofilm, 0.0078 % v/v",73.64%
same,Log Reduction,"[4]; 48-hour biofilm, 0.0078 % v/v",0.58
same,% Biofilm Removal Efficacy,"[4]; 48-hour biofilm, 0.0156 % v/v",86.36%
same,Log Reduction,"[4]; 48-hour biofilm, 0.0156 % v/v",0.87
same,% Biofilm Removal Efficacy,"[4]; 48-hour biofilm, 0.0313 % v/v",96.27%
same,Log Reduction,"[4]; 48-hour biofilm, 0.0313 % v/v",1.43
same,% Biofilm Removal Efficacy,"[4]; 48-hour biofilm, 0.0630 % v/v",98.27%
same,Log Reduction,"[4]; 48-hour biofilm, 0.0630 % v/v",1.76
same,Removal of existing 48-hour biofilm (up to),"[4]; 48-hour biofilm, best of the tested concentrations",≤ 99%
same,Algae growth,[1],inhibited
same,"Minimum Inhibitory Concentration (MIC) (% v/v) M07-09 Method, L. fermentum",L. fermentum (ATCC 9338),0.0150 % v/v
